Experimental data reported in patent publication US12612366B2, “Salts and crystal forms of omecamtiv mecarbil” (Amgen Inc., priority 2018, dated 2026).
Where a name gives a salt, the structure may show the parent alone.

How the values were obtained:
[1] = Solubility: excess solid in water, pH 1.0 or pH 4.5 buffer, filtrate analyzed by HPLC-UV; assay type: physicochemical; settings: for pH given with the water solubility: water solubility sample; for Water solubility / Solubility in pH 1 buffer / Solubility in pH 4.5 buffer: room temperature; for Water solubility: suspension dispersed for at least 24, filtered, HPLC-UV, pH given in brackets
Method: An excess of solid was added to water, pH 1.0 or pH 4.5 buffer to produce a suspension and dispersed for at least 24 at room temperature. Suspensions were filtered. Filtrate was analyzed by HPLC-UV and compared against a standard curve to determine the solution concentration of the crystal form.

[2] = Moisture sorption (dynamic vapor sorption, DVS); assay type: physicochemical; settings: 25° C.; for Vapor sorption behaviour (hygroscopicity, form conversion): DVS 0-95% RH
Method: Moisture balance was collected using a dynamic vapor sorption (DVS) analyzer. Relative humidity (RH) was set to 0, 5, 15, 25, 35, 45, 55, 65, 75, 85 and 95% RH for 2 sorption/desorption cycles at 25° C. Equilibration criteria was set at 0.001% weight. Approximately 10 mg of sample was used.

Row | SMILES | pH given with the water solubility [1] | Water solubility [1] | further results
1 | COC(=O)N1CCN(Cc2cccc(NC(=O)Nc3ccc(C)nc3)c2F)CC1 [Mono-napadisylate crystalline salt, omecamtiv mecarbil] | 2.35 | 300 µg/mL | 
2 | COC(=O)N1CCN(Cc2cccc(NC(=O)Nc3ccc(C)nc3)c2F)CC1 [bis-maleate crystalline salt form A, omecamtiv mecarbil] | 3.7 | 3800 µg/mL | 
3 | COC(=O)N1CCN(Cc2cccc(NC(=O)Nc3ccc(C)nc3)c2F)CC1 [Hemi-succinate crystalline salt, omecamtiv mecarbil] | 4.7 | 7400 µg/mL | 
4 | COC(=O)N1CCN(Cc2cccc(NC(=O)Nc3ccc(C)nc3)c2F)CC1 [Bis-tartrate crystalline salt form A, omecamtiv mecarbil] | 3.28 | > 53000 µg/mL | 
5 | COC(=O)N1CCN(Cc2cccc(NC(=O)Nc3ccc(C)nc3)c2F)CC1 [Bis-sulfate crystalline salt form A, omecamtiv mecarbil] | 1.5 | 16000 µg/mL | 
6 | COC(=O)N1CCN(Cc2cccc(NC(=O)Nc3ccc(C)nc3)c2F)CC1 [Bis-mesylate crystalline salt form B, omecamtiv mecarbil] |  |  | Solubility in pH 1 buffer [1]: greater than 23 mg/mL; Solubility in pH 4.5 buffer [1]: greater than 23 mg/mL
7 | COC(=O)N1CCN(Cc2cccc(NC(=O)Nc3ccc(C)nc3)c2F)CC1 [Mesylate crystalline salt form A, omecamtiv mecarbil] | 1.39 | greater than 72 mg/mL | 
8 | COC(=O)N1CCN(Cc2cccc(NC(=O)Nc3ccc(C)nc3)c2F)CC1 [Amorphous hydrochloride salt, omecamtiv mecarbil] |  |  | Vapor sorption behaviour (hygroscopicity, form conversion) [2]: hygroscopic and converts to the crystalline bis-hydrochloride monohydrate Form A; Vapor sorption behaviour (hygroscopicity, form conversion) ([2]; listed as amorphous hydrochloride salt): weight loss due to crystallization to Form A up to 95% RH; Moisture sorption weight gain ([2]; by 50% RH): ~11%
9 | COC(=O)N1CCN(Cc2cccc(NC(=O)Nc3ccc(C)nc3)c2F)CC1 [Bis-naphthalate-2-sulfonate crystalline salt] [omecamtiv mecarbil] |  |  | Solubility in pH 1 buffer [1]: greater than 10 mg/mL; Solubility in pH 4.5 buffer [1]: greater than 10 mg/mL
10 | COC(=O)N1CCN(Cc2cccc(NC(=O)Nc3ccc(C)nc3)c2F)CC1 [Bis-fumarate crystalline salt form C, omecamtiv mecarbil] | 3.1 | 13700 µg/mL | 
11 | COC(=O)N1CCN(Cc2cccc(NC(=O)Nc3ccc(C)nc3)c2F)CC1 [Bis-malonate crystalline salt, omecamtiv mecarbil] | 3.69 | greater than 62 mg/mL | 
12 | COC(=O)N1CCN(Cc2cccc(NC(=O)Nc3ccc(C)nc3)c2F)CC1 [Bis-sulfate crystalline salt form B, omecamtiv mecarbil] | 3.5 | 9000 µg/mL | 
